Key:
[1] = test system: CCRF-CEM; format: cell-based; settings: Homo sapiens, one dose 10^-5 M, 48 h
[2] = test system: HL-60(TB); format: cell-based; settings: Homo sapiens, one dose 10^-5 M, 48 h
[3] = test system: K-562; format: cell-based; settings: Homo sapiens, K562, one dose 10^-5 M, 48 h
[4] = test system: MOLT-4; format: cell-based; settings: Homo sapiens, one dose 10^-5 M, 48 h, read-out: % growth
[5] = test system: RPMI-8226; format: cell-based; settings: Homo sapiens, one dose 10^-5 M, 48 h
[6] = test system: SR; format: cell-based; settings: Homo sapiens, one dose 10^-5 M, 48 h
[7] = test system: A549/ATCC; format: cell-based; settings: Homo sapiens, one dose 10^-5 M, 48 h
[8] = test system: EKVX; format: cell-based; settings: Homo sapiens, one dose 10^-5 M, 48 h
[9] = test system: HOP-62; format: cell-based; settings: Homo sapiens, one dose 10^-5 M, 48 h
[10] = test system: HOP-92; format: cell-based; settings: Homo sapiens, one dose 10^-5 M, 48 h
[11] = test system: NCI-H226; format: cell-based; settings: Homo sapiens, one dose 10^-5 M, 48 h
[12] = test system: NCI-H23; format: cell-based; settings: Homo sapiens, one dose 10^-5 M, 48 h, read-out: % growth
[13] = test system: NCI-H460; format: cell-based; settings: Homo sapiens, one dose 10^-5 M, 48 h, read-out: % growth
[14] = test system: NCI-H522; format: cell-based; settings: Homo sapiens, one dose 10^-5 M, 48 h
[15] = test system: COLO 205; format: cell-based; settings: Homo sapiens, one dose 10^-5 M, 48 h
[16] = test system: HCT-116; format: cell-based; settings: Homo sapiens, one dose 10^-5 M, 48 h, read-out: % growth
[17] = test system: HCT-15; format: cell-based; settings: Homo sapiens, one dose 10^-5 M, 48 h, read-out: % growth
[18] = test system: HT29; format: cell-based; settings: Homo sapiens, HT-29, one dose 10^-5 M, 48 h
[19] = test system: KM12; format: cell-based; settings: Homo sapiens, one dose 10^-5 M, 48 h
[20] = test system: SW-620; format: cell-based; settings: Homo sapiens, one dose 10^-5 M, 48 h
[21] = test system: SF-268; format: cell-based; settings: Homo sapiens, one dose 10^-5 M, 48 h, read-out: % growth
[22] = test system: SF-295; format: cell-based; settings: Homo sapiens, one dose 10^-5 M, 48 h
[23] = test system: SF-539; format: cell-based; settings: Homo sapiens, one dose 10^-5 M, 48 h
[24] = test system: SNB-19; format: cell-based; settings: Homo sapiens, one dose 10^-5 M, 48 h, read-out: % growth
[25] = test system: SNB-75; format: cell-based; settings: Homo sapiens, one dose 10^-5 M, 48 h
[26] = test system: U251; format: cell-based; settings: Homo sapiens, U-251, one dose 10^-5 M, 48 h
[27] = test system: LOX IMVI; format: cell-based; settings: Homo sapiens, one dose 10^-5 M, 48 h, read-out: % growth
[28] = test system: MALME-3M; format: cell-based; settings: Homo sapiens, one dose 10^-5 M, 48 h
[29] = test system: M14; format: cell-based; settings: Homo sapiens, one dose 10^-5 M, 48 h
[30] = test system: MDA-MB-435; format: cell-based; settings: Homo sapiens, one dose 10^-5 M, 48 h, read-out: % growth
[31] = test system: SK-MEL-2; format: cell-based; settings: Homo sapiens, one dose 10^-5 M, 48 h
[32] = test system: SK-MEL-28; format: cell-based; settings: Homo sapiens, one dose 10^-5 M, 48 h
[33] = test system: SK-MEL-5; format: cell-based; settings: Homo sapiens, one dose 10^-5 M, 48 h, read-out: % growth
[34] = test system: UACC-257; format: cell-based; settings: Homo sapiens, one dose 10^-5 M, 48 h
[35] = test system: UACC-62; format: cell-based; settings: Homo sapiens, one dose 10^-5 M, 48 h
[36] = test system: IGROV1; format: cell-based; settings: Homo sapiens, IGROV-1, one dose 10^-5 M, 48 h, read-out: % growth
[37] = test system: OVCAR-3; format: cell-based; settings: Homo sapiens, one dose 10^-5 M, 48 h
[38] = test system: OVCAR-4; format: cell-based; settings: Homo sapiens, one dose 10^-5 M, 48 h
[39] = test system: OVCAR-5; format: cell-based; settings: Homo sapiens, one dose 10^-5 M, 48 h
[40] = test system: OVCAR-8; format: cell-based; settings: Homo sapiens, one dose 10^-5 M, 48 h
[41] = test system: NCI/ADR-RES; format: cell-based; settings: Homo sapiens, one dose 10^-5 M, 48 h
[42] = test system: SK-OV-3; format: cell-based; settings: Homo sapiens, one dose 10^-5 M, 48 h
[43] = test system: 786-0; format: cell-based; settings: Homo sapiens, one dose 10^-5 M, 48 h
[44] = test system: A498; format: cell-based; settings: Homo sapiens, one dose 10^-5 M, 48 h
[45] = test system: ACHN; format: cell-based; settings: Homo sapiens, one dose 10^-5 M, 48 h
[46] = test system: CAKI-1; format: cell-based; settings: Homo sapiens, CAKI-1, 48 h, one dose 10^-5 M, 48 h
[47] = test system: SN12C; format: cell-based, human; settings: Homo sapiens, one dose 10^-5 M, 48 h
[48] = test system: TK-10; format: cell-based; settings: Homo sapiens, one dose 10^-5 M, 48 h
[49] = test system: UO-31; format: cell-based; settings: Homo sapiens, UO-31, 48 h, one dose 10^-5 M, 48 h
[50] = test system: PC-3; format: cell-based; settings: Homo sapiens, one dose 10^-5 M, 48 h
[51] = test system: DU-145; format: cell-based; settings: Homo sapiens, one dose 10^-5 M, 48 h
[52] = test system: MCF7; format: cell-based; settings: Homo sapiens, one dose 10^-5 M, 48 h, read-out: % growth
[53] = test system: MDA-MB-231/ATCC; format: cell-based; settings: Homo sapiens, one dose 10^-5 M, 48 h
[54] = test system: HS 578T; format: cell-based; settings: Homo sapiens; one dose 10^-5 M, 48 h; HS 578T; read-out: % growth
[55] = test system: BT-549; format: cell-based; settings: Homo sapiens, one dose 10^-5 M, 48 h
[56] = test system: T-47D; format: cell-based; settings: Homo sapiens, T47D, one dose 10^-5 M, 48 h, read-out: % growth
[57] = test system: MDA-MB-468; format: cell-based; settings: Homo sapiens, one dose 10^-5 M, 48 h
[58] = test system: full NCI 60 cell lines panel; settings: for activity at 10 µM: Homo sapiens, 60 cell, 48 h, read-out: Mean % growth; for activity on all 60 cancer cell lines tested (in words): one dose
[59] = test system: HCC-2998; format: cell-based; settings: Homo sapiens, one dose 10^-5 M, 48 h
[60] = test system: RXF 393; format: cell-based; settings: Homo sapiens, RXF 393, 48 h, one dose 10^-5 M, 48 h, read-out: % growth

CN(C)c1ccc(-c2cc([N+](=O)[O-])ccc2C=NNC(=N)c2cnc(S)nc2N)cc1 [Compound 4c, 4-amino-N'-[6-[4-(dimethylamino)phenyl]-(4-nitrophenyl)methylene]-2-mercapto pyrimidine-5-carboximidohydrazide]
% cell growth at 10 µM [1]: 84.4%
% growth at 10 µM [2]: 96.4%
% growth at 10 µM [3]: 104%
activity at 10 µM [4]: 109%
% growth at 10 µM [5]: 97%
percent cell growth at 10 µM [6]: 107%
% growth at 10 µM [7]: 104%
% cell growth at 10 µM [8]: 100%
% growth at 10 µM [9]: 102%
% growth at 10 µM [10]: 118%
% growth at 10 µM [11]: 112%
activity at 10 µM [12]: 104%
activity at 10 µM [13]: 108%
% growth at 10 µM [14]: 96%
% growth at 10 µM [15]: 127%
activity at 10 µM [16]: 106%
activity at 10 µM [17]: 98.5%
% growth at 10 µM [18]: 109%
% growth at 10 µM [19]: 100%
% growth at 10 µM [20]: 109%
activity at 10 µM [21]: 87.8%
% cell growth at 10 µM [22]: 92.4%
% growth at 10 µM [23]: 98.8%
activity at 10 µM [24]: 97.2%
% growth at 10 µM [25]: 100%
% growth at 10 µM [26]: 106%
activity at 10 µM [27]: 99.3%
% growth at 10 µM [28]: 108%
% growth at 10 µM [29]: 110%
activity at 10 µM [30]: 102%
% growth at 10 µM [31]: 114%
% cell growth at 10 µM [32]: 112%
activity at 10 µM [33]: 103%
percent cell growth at 10 µM [34]: 106%
% growth at 10 µM [35]: 100%
activity at 10 µM [36]: 102%
% growth at 10 µM [37]: 106%
% growth at 10 µM [38]: 101%
percent cell growth at 10 µM [39]: 110%
% growth of cells at 10 µM [40]: 95.8%
cell growth percent at 10 µM [41]: 102%
% growth at 10 µM [42]: 95.7%
% growth at 10 µM [43]: 95.7%
% growth at 10 µM [44]: 124%
% growth at 10 µM [45]: 103%
% growth at 10 µM [46]: 99.6%
% growth at 10 µM [47]: 99.5%
% cell growth at 10 µM [48]: 102%
% cell growth at 10 µM [49]: 75.4%
percent cell growth at 10 µM [50]: 94.1%
% growth at 10 µM [51]: 108%
activity at 10 µM [52]: 92%
% growth at 10 µM [53]: 111%
activity at 10 µM [54]: 95.2%
% cell growth at 10 µM [55]: 112%
activity at 10 µM [56]: 101%
percent cell growth at 10 µM [57]: 108%
activity at 10 µM [58]: 103%
activity on all 60 cancer cell lines tested (in words) [58]: weak activity

N=C(NN=Cc1ccc([N+](=O)[O-])cc1)c1c(N)nc(S)nc1-c1ccc(Cl)cc1 [Compound 4i, 4-amino-6–(4-chlorophenyl)-2-mercapto-N'-[(4-nitrophenyl)methylene] pyrimidine-5-carboximidohydrazide]
% cell growth at 10 µM [1]: 88.6%
% growth at 10 µM [2]: 97.3%
% growth at 10 µM [3]: 96.3%
activity at 10 µM [4]: 105%
% growth at 10 µM [5]: 89%
percent cell growth at 10 µM [6]: 96.5%
% growth at 10 µM [7]: 103%
% cell growth at 10 µM [8]: 95.8%
% growth at 10 µM [9]: 95%
% growth at 10 µM [10]: 97%
% growth at 10 µM [11]: 150%
activity at 10 µM [12]: 106%
activity at 10 µM [13]: 104%
% growth at 10 µM [14]: 92.9%
% growth at 10 µM [59]: 104%
activity at 10 µM [16]: 108%
activity at 10 µM [17]: 95.2%
% growth at 10 µM [18]: 101%
% growth at 10 µM [19]: 99.2%
% growth at 10 µM [20]: 102%
activity at 10 µM [21]: 117%
% cell growth at 10 µM [22]: 96.7%
% growth at 10 µM [23]: 96.7%
activity at 10 µM [24]: 94.2%
% growth at 10 µM [25]: 115%
% growth at 10 µM [26]: 98.8%
activity at 10 µM [27]: 106%
% growth at 10 µM [28]: 96.9%
% growth at 10 µM [29]: 107%
activity at 10 µM [30]: 101%
% growth at 10 µM [31]: 108%
% cell growth at 10 µM [32]: 101%
activity at 10 µM [33]: 101%
percent cell growth at 10 µM [34]: 96.5%
% growth at 10 µM [35]: 94.6%
activity at 10 µM [36]: 99.4%
% growth at 10 µM [37]: 119%
% growth at 10 µM [38]: 98.6%
percent cell growth at 10 µM [39]: 101%
% growth of cells at 10 µM [40]: 105%
% growth at 10 µM [42]: 103%
% growth at 10 µM [43]: 103%
% growth at 10 µM [44]: 114%
% growth at 10 µM [45]: 92.1%
% growth at 10 µM [46]: 89.6%
activity at 10 µM [60]: 108%
% growth at 10 µM [47]: 92.6%
% cell growth at 10 µM [48]: 112%
% cell growth at 10 µM [49]: 91%
percent cell growth at 10 µM [50]: 90.1%
% growth at 10 µM [51]: 108%
activity at 10 µM [52]: 90.7%
% growth at 10 µM [53]: 96%
activity at 10 µM [54]: 118%
activity at 10 µM [56]: 90.5%
percent cell growth at 10 µM [57]: 114%
activity at 10 µM [58]: 101%
activity on all 60 cancer cell lines tested (in words) [58]: weak activity
